The values below come from patent US12441689B2 (EpiVario, Inc., priority 2019, dated 2025).

Bounds are passed on as bounds.

The target in the test is human ACSS2 protein (Homo sapiens (Human), UniProt Q9NR19). Kind of test: ACSS2 Cell-Free Activity Assay (Cell-Free IC50). Particulars: 10 nM human ACSS2 protein, 90 minutes at 37 C, pyrophosphatase-coupled, Biomol Green absorbance at 620 nm; read-out: ACSS2 Biochemical IC50. The text has this: ACSS2 Cell-Free Activity Assay (Cell-Free IC50)
human ACSS2 protein, sequence (Q9NR19 whole entry): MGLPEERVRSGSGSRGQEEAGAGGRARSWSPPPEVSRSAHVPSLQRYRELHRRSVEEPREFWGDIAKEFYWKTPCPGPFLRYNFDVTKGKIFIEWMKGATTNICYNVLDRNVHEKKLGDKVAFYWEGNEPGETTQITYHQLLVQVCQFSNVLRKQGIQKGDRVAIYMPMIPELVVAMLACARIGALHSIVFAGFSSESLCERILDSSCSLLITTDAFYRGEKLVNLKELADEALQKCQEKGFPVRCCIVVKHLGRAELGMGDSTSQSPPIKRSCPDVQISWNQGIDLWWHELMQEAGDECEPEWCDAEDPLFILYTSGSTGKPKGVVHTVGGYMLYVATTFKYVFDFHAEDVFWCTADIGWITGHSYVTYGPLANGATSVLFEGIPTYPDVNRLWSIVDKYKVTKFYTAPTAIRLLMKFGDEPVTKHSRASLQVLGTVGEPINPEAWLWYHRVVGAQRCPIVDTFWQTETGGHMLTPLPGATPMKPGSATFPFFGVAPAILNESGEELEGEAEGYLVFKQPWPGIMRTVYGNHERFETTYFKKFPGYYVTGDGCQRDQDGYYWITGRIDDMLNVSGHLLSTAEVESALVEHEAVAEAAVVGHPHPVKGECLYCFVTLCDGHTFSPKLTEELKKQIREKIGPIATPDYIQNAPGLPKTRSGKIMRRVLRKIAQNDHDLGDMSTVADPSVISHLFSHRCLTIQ
`CCC(F)(F)c1cccc(NC(=O)c2cc(C)nc(-c3ccc(OC(F)F)cc3)c2)c1` [Compound 102, 2-[4-(difluoromethoxy)phenyl]-N-[3-(1,1-difluoropropyl)phenyl]-6-methyl-pyridine-4-carboxamide]: the IC50 was more than 100 nM.

For `COc1c(Cc2ccc(Cl)cc2)cc(N2N=C(C)C(C(=O)Nc3cccc(C(C)(F)F)c3)C2=O)cc1-c1ccccc1` (centres unmarked) [Compound 224, 1-(5-(4-chlorobenzyl)-6-methoxy-[1,1’-biphenyl]-3-yl)-N-(3-(1,1-difluoroethyl)phenyl)-3-methyl-5-oxo-4,5-dihydro-1H-pyrazole-4-carboxamide], the IC50 is 1 to 100 nM.

Regarding `CCCc1cc(N2N=C(C)C(C(=O)Nc3cccc(C(C)(F)F)c3)C2=O)cc(-c2ccccc2)c1OC` (centres unmarked) [Compound 161, N-(3-(1,1-difluoroethyl)phenyl)-1-(6-methoxy-5-propyl-[1,1′-biphenyl]-3-yl)-3-methyl-5-oxo-4,5-dihydro-1H-pyrazole-4-carboxamide], the IC50 was less than 1 nM.

On to `CCC(F)(F)c1cccc(NC(=O)c2c(C)nn(-c3ccc(OC)cc3)[n+]2[O-])c1` [Compound 253, 5-((3-(1,1-difluoropropyl)phenyl)carbamoyl)-2-(4-methoxyphenyl)-4-methyl-2H-1,2,3-triazole 1-oxide], for which the IC50 is more than 100 nM.

Regarding `CCC(F)(F)c1cccc(NC(=O)c2cc(-c3ccc(OC(F)F)c(-c4ccccc4)c3)[nH]c2C)c1` [Compound 217, 5-[4-(difluoromethoxy)-3-phenyl-phenyl]-N-[3-(1,1-difluoropropyl)phenyl]-2-methyl-1H-pyrrole-3-carboxamide], the IC50 is more than 100 nM.

Turning to `CC1=NN(c2ccc(OC(F)F)cc2)C(=O)C1(F)C(=O)Nc1cccc(C(C)(F)F)c1` (centres unmarked) [Compound 205, N-(3-(1,1-difluoroethyl)phenyl)-1-(4-(difluoromethoxy)phenyl)-4-fluoro-3-methyl-5-oxo-4,5-dihydro-1H-pyrazole-4-carboxamide], the 50% inhibitory concentration (IC50) was less than 1 nM.

As for `CCCc1cc(N2N=C(C)C(C(=O)Nc3cccc(C(F)(F)CC)c3)C2=O)cc(-c2ccccc2)c1OC` (centres unmarked) [Compound 225, N-(3-(1,1-difluoropropyl)phenyl)-1-(6-methoxy-5-propyl-[1,1’-biphenyl]-3-yl)-3-methyl-5-oxo-4,5-dihydro-1H-pyrazole-4-carboxamide], the IC50 is 1 to 100 nM.

As for `Cc1nn(-c2ccc(OC(F)F)c(-c3cccnc3)c2)c(OC(=O)N2CCN(C(C)(C)CO)CC2)c1C(=O)Nc1cccc(C(C)(F)F)c1` [Compound 183, 4-((3-(1,1-difluoroethyl)phenyl)carbamoyl)-1-(4-(difluoromethoxy)-3-(pyridin-3-yl)phenyl)-3-methyl-1H-pyrazol-5-yl 4-(1-hydroxy-2-methylpropan-2-yl)piperazine-1-carboxylate], the IC50 is more than 100 nM.

In the case of `CCC(F)(F)c1cccc(NC(=O)c2cnc(-c3ccc(OC(F)F)c(-c4ccccc4)c3)nc2C)c1` [Compound 138, 2-[4-(difluoromethoxy)-3-phenyl-phenyl]-N-[3-(1,1-difluoropropyl)phenyl]-4-methyl-pyrimidine-5-carboxamide], the IC50 was more than 100 nM.

As for `CCC(F)(F)c1cccc(NC(=O)c2oc(-c3ccc(OC)cc3)nc2C)c1` [Compound 136, N-(3-(1,1-difluoropropyl)phenyl)-2-(4-methoxyphenyl)-4-methyloxazole-5-carboxamide], the concentration for half-maximal inhibition (IC50) was in the range of 1 to 100 nM.

Regarding `Cc1nn(-c2cc(-c3ccccc3)c(OC(F)F)c(-c3ccccc3)c2)cc1C(=O)Nc1cccc(C(C)(F)F)c1` [Compound 176, N-(3-(1,1-difluoroethyl)phenyl)-1-(2′-(difluoromethoxy)-[1,1′:3′,1″-terphenyl]-5′-yl)-3-methyl-1H-pyrazole-4-carboxamide], the IC50 was in the range of 1 to 100 nM.

For `CCC(F)(F)c1cccc(NC(=O)c2c(C)[nH]c3ccc(OC)cc3c2=O)c1` [Compound 272, N-(3-(1,1-difluoropropyl)phenyl)-6-methoxy-2-methyl-4-oxo-1,4-dihydroquinoline-3-carboxamide], the concentration for half-maximal inhibition (IC50) fell in the range of 1 to 100 nM.

In the case of `CCC(F)(F)c1cccc(NC(=O)c2nc(-c3ccc(OC)cc3)oc2C)c1` [Compound 116, N-(3-(1,1-difluoropropyl)phenyl)-2-(4-methoxyphenyl)-5-methyloxazole-4-carboxamide], the IC50 is more than 100 nM.

As to `Cc1nn(-c2ccc(OC(F)F)cc2)c(N(C)C)c1C(=O)Nc1cccc(C(C)(F)F)c1` [Compound 168, N-(3-(1,1-difluoroethyl)phenyl)-1-(4-(difluoromethoxy)phenyl)-5-(dimethylamino)-3-methyl-1H-pyrazole-4-carboxamide], the IC50 was 1 to 100 nM.

In the case of `CC1=NN(c2ccc(OC(F)F)cc2)C(=O)C1(C)C(=O)Nc1cc(C)cc(Cl)c1` (centres unmarked) [Compound 157, N-(3-chloro-5-methyl-phenyl)-1-[4-(difluoromethoxy)phenyl]-3,4-dimethyl-5-oxo-pyrazole-4-carboxamide], the IC50 was more than 100 nM.

As to `CC1=NN(c2ccc(OC(F)F)cc2)C(=O)[C@]1(C)C(=O)Nc1cccc(C(C)(F)F)c1` [Compound 170, (4S)—N-(3-(1,1-difluoroethyl)phenyl)-1-(4-(difluoromethoxy)phenyl)-3,4-dimethyl-5-oxo-4,5-dihydro-1H-pyrazole-4-carboxamide], the IC50 was more than 100 nM.

As for `Cc1oc(-c2ccc3cc[nH]c3c2)nc1C(=O)Nc1cccc(C(C)(F)F)c1` [Compound 107, N-[3-(1,1-difluoroethyl)phenyl]-2-(1H-indol-6-yl)-5-methyl-oxazole-4-carboxamide], the IC50 is more than 100 nM.

As to `CNc1c(C(=O)Nc2cccc(C(C)(F)F)c2)c(C)nn1-c1ccc(OC(F)F)cc1` [Compound 162, N-(3-(1,1-difluoroethyl)phenyl)-1-(4-(difluoromethoxy)phenyl)-3-methyl-5-(methylamino)-1H-pyrazole-4-carboxamide], the IC50 was in the range of 1 to 100 nM.

Consider `Cc1nc(-c2ccc(OC(F)F)cc2)cnc1C(=O)Nc1cccc(C(C)(F)F)c1` [Compound 133, N-(3-(1,1-difluoroethyl)phenyl)-5-(4-(difluoromethoxy)phenyl)-3-methylpyrazine-2-carboxamide], for which the IC50 is more than 100 nM.

For `Cc1nc(-c2cc(-n3cc(C(=O)Nc4cccc(C(C)(F)F)c4)c(C)n3)ccc2OC(F)F)co1` [Compound 131, N-(3-(1,1-difluoroethyl)phenyl)-1-(4-(difluoromethoxy)-3-(2-methyloxazol-4-yl)phenyl)-3-methyl-1H-pyrazole-4-carboxamide], the half-inhibitory concentration (IC50) was more than 100 nM.

As to `CC1=NN(c2ccc(OC(F)F)cc2)C(=O)C1C(=O)Nc1cccc(C(F)(F)C2CCC2)c1` (centres unmarked) [Compound 101, N-(3-(cyclobutyldifluoromethyl)phenyl)-1-(4-(difluoromethoxy)phenyl)-3-methyl-5-oxo-4,5-dihydro-1H-pyrazole-4-carboxamide], the IC50 lay in the range of 1 to 100 nM.

Turning to `Cc1nc(-c2ccc(OC(F)F)cc2)oc1C(=O)Nc1cccc(C(C)(F)F)c1` [Compound 141, N-(3-(1,1-difluoroethyl)phenyl)-2-(4-(difluoromethoxy)phenyl)-4-methyloxazole-5-carboxamide], the IC50 is more than 100 nM.

On to `CCC(F)(F)c1cccc(NC(=O)c2cc(-c3ccc(OC(F)F)cc3)[nH]c2C)c1` [Compound 216, 5-[4-(difluoromethoxy)phenyl]-N-[3-(1,1-difluoropropyl)phenyl]-2-methyl-1H-pyrrole-3-carboxamide], for which the IC50 was more than 100 nM.
